From the METLIN SMRT retention time set (Domingo-Almenara et al. 2019) come the findings set out here.

The series in a line: gradient 5% acetonitrile 3 min, to 50% in 2 min, to 85% in 15 min, held 3 min, 100 µL/min. As to conditions: column: Zorbax Extend-C18 2.1 x 50 mm; eluents: water / acetonitrile, 0.1% formic acid. An outline of the steps: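 Standards, all pure, were combined into mixtures of ~100 molecules and run at 100 μL/min on a Zorbax Extend-C18 column (2.1 × 50 mm, 1.8 μm) with water and acetonitrile, each containing 0.1% formic acid. A coupled quadrupole time-of-flight mass spectrometer operated in positive and negative ionization mode. Retention time values come from computationally picked adduct peaks, each inspected manually.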
Consider `O=C(Cn1nc2c(N3CCc4ccccc4C3)nccn2c1=O)NCCC1=CCCCC1`, for which the RP-LC retention time came to 984 s.
On to `CN1c2ccc(Cl)cc2C(=O)NC12CCN(C(=O)Nc1ccc(F)cc1)CC2`, for which the RP-LC retention time worked out at 788 s.
In the case of `Cc1ccc(-c2noc(-c3ccc(=O)n(CC(=O)OC(C)C)n3)n2)cc1` it was 1050 s.
The figure for `Cc1ccc(S(=O)(=O)N2CCn3c(nnc3C3CCN(C(C)C)C3)C2)c(C)c1` (stereo unspecified) is 616 s; for `CCOc1ccc(S(=O)(=O)N2CCc3c(c(-c4nnc(SCC)n4CC)nn3C)C2)cc1` it is 961 s; for `O=C(CCC(=O)N1CC2CCCN2c2ccccc21)NCCCN1CCCC1` (stereo unspecified) it is 627 s.
In the case of `O=C(CCc1c(-c2ccc(Br)cc2)nc2ccccn12)NCc1cccnc1` it was 557 s.
`Cc1cnc(C(=O)NC2C[C@H]3CC[C@@H](C2)N3C(=O)C2CC2)cn1` (stereo partly specified) registered an RP-LC retention time of 606 s.
The figure for `CSc1ccccc1C(=O)Nc1nc(CN2CCc3ccccc3C2)cs1` is 594 s; for `Cn1cc(C(=O)N2CCCCCCNC(=O)[C@@H]3CCC[C@@H]32)cn1` it is 622 s.
The figure for `O=C(O)c1cnc(N2CCCCC2)nc1-c1ccncc1` is 636 s.
In the case of `O=C(O)c1cccnc1SC1CC(=O)N(c2ccc(F)c(Cl)c2)C1=O` (stereo unspecified) it was 741 s.
For the molecule `Cc1ccccc1-c1nocc1CCC(=O)O`, the RP-LC retention time was determined as 651 s.
In the case of `COc1cccc(-c2n[nH]c3c2C(c2ccc(O)c(OC)c2)NC3=O)c1` (stereo unspecified) it was 634 s.
In the case of `O=C(Cn1ccc2ccc(N3CCOCC3)nc21)NCc1ccc(C(F)(F)F)cc1` it was 958 s.
In the case of `O=C(Nc1ccc2c(c1)CN(C(=O)C1CC1)CC2)NC1CC1` it was 632 s; in that of `COc1cc(OC)c(NC(=O)Cn2nc(C(=O)N3CCCC3)c3ccccc32)cc1Cl`, 897 s; in that of `COc1ccc(N2CCN(c3nc(C(=O)N4CCOCC4)cs3)CC2)cc1`, 716 s.
The molecule `CC(C)CC(=O)Nc1ccc(S(=O)(=O)N2CCC(c3ccncc3)CC2)cc1` gave an RP-LC retention time of 616 s.
The figure for `Cc1ccsc1CN1CCc2nc(N3CCN(c4ccc(F)cc4)CC3)ncc2C1` is 734 s.
In the case of `COc1cc(OC)c(NC(=O)CN2C(=O)CN(C)C(=O)c3ccccc32)cc1Cl`, the RP-LC retention time was 719 s.
In the case of `Cc1cccc(NC(=O)N(C)CCc2noc(COc3ccccc3F)n2)c1C` it was 823 s; in that of `Cc1cc(C)n(CCN2CCN(C(=O)Cn3cnc4ccccc43)CC2)n1`, 512 s; in that of `CC(C(=O)NCc1ccco1)C1CCN(C(=O)c2cc3cc(Cl)ccc3[nH]2)CC1` (stereo unspecified), 841 s.
In the case of `O=C1COc2ccc(S(=O)(=O)N3CCC(C(=O)Nc4ccccc4)CC3)cc2N1` it was 759 s.
The figure for `COC(=O)C1=CN(c2ccc(C)c(F)c2)c2ccc(F)cc2S1(=O)=O` is 920 s.
For `CCCn1c(=O)sc2cc(S(=O)(=O)N3CCC(C(=O)N4c5ccccc5CC4C)CC3)ccc21` (stereo unspecified), the RP-LC retention time amounted to 1080 s.
The figure for `CCOC(=O)c1ccc(N2C=C(C(=O)OC)S(=O)(=O)c3ccccc32)cc1` is 893 s; for `CC(C)c1ccc(NC(=O)Cn2cnc3nc(N4CCCC(C(=O)NC5CC5)C4)sc3c2=O)cc1` (stereo unspecified) it is 754 s; for `CCN(CC)C(=O)c1cc2c(s1)CCC(C(=O)NCc1ccc3c(c1)OCO3)C2` (stereo unspecified) it is 830 s.
In the case of `Cc1cc(C)cc(NC(=O)Cn2c(N3CCC(C)CC3)nc(C)cc2=O)c1` it was 796 s; in that of `O=C(Cc1nnc(-c2ccccc2)o1)NC1CCCCC1`, 787 s; in that of `CCOc1ccc(S(=O)(=O)N2CCCN(c3ccc(=O)n(-c4ccc(F)cc4)n3)CC2)cc1`, 885 s.
In turn, `O=C(COc1ccc(Cl)cc1Cl)Nc1c(-c2ccccc2)nc2ccccn12` yielded an RP-LC retention time of 738 s.
The figure for `Cc1ccc(-n2cc(C(=O)NCc3ccccc3Cl)nn2)cc1` is 921 s.
In the case of `COc1ccc(C2C(C(=O)NCc3ccccc3OC)c3cc(OC)c(OC)cc3C(=O)N2C)cc1` (stereo unspecified) it was 802 s; in that of `Cc1ccc(-n2c(N3CCCC(C(=O)Nc4ccc(F)c(F)c4)C3)nc3ccsc3c2=O)cc1` (stereo unspecified), 1050 s; in that of `O=C(CCc1conc1-c1ccccc1)N1CCN(C2CCCCC2)CC1`, 630 s.
The figure for `O=C(CN1CC=C(c2cnn(-c3ccc(F)cc3)c2)CC1)NCc1ccco1` is 658 s.
As to `COC(=O)CCSCc1ccc(-c2onc(C)c2NC(=O)OC(C)c2ccccc2Cl)cc1` (stereo unspecified), the RP-LC retention time was 1150 s.
`CCOC(=O)C1=C(CN2CCC(N3CCCCC3)CC2)NC(=O)NC1c1ccc(OC(C)C)cc1` (stereo unspecified) returned an RP-LC retention time of 605 s.
Turning to `COc1cc(CN2CC(Oc3ccc(-c4noc(C5CC5)n4)cc3)C2)cc(OC)c1`, the RP-LC retention time was 772 s.
In the case of `Fc1cccc(Cl)c1CN1CC(c2nc(C3CC3)no2)C1` it was 564 s; in that of `Cc1ccn2cc(-c3ccc(NC(=O)c4cccc(I)c4)cc3)nc2n1`, 734 s; in that of `COc1ccc(CC(=O)Nc2cc(-c3cccnc3)no2)cc1`, 708 s.
The figure for `COc1cccc(CC(=O)N2CCC(c3cc(N)on3)CC2)c1` is 663 s; for `Cc1cc(C)cc(OCc2nc(CCN(C)C(=O)NCc3ccccc3)no2)c1` it is 980 s.
On to `O=C(CSc1nnc2c3cc(-c4ccc(F)cc4)nn3ccn12)Nc1ccc(F)cc1F`, for which the RP-LC retention time is 891 s.
The figure for `Cc1cccc(S(=O)(=O)N2CCc3nc[nH]c3C2)c1` is 590 s; for `CN1C(=O)c2cccn2CC1CNC(=O)c1ccnn1C` (stereo unspecified) it is 591 s.
As for `CC(C)c1nccn1C1CN(C(=O)C2CCCCC2)C1`, the RP-LC retention time was found to be 594 s.
`c1cc(-c2noc(C3CC3)n2)ccc1OC1CNC1` gave an RP-LC retention time of 616 s.
In the case of `Cn1nc(N2CCCC(NC(=O)c3cccs3)C2)ccc1=O` (stereo unspecified) it was 627 s; in that of `COc1cc(OC)cc(C(=O)N2CCC3(CC2)NC(=O)c2ccc(Cl)cc2N3)c1`, 742 s.
The figure for `CCC1CCCCN1CCNC(=O)CCc1cc2ccc(C)cc2[nH]c1=O` (stereo unspecified) is 621 s.
In the case of `CCN1C(=O)COc2ccc(-c3nc(NC(=O)c4cccc(C)c4)sc3C)cc21` it was 682 s; in that of `CC(NC(=O)CCc1c(-c2ccc(Cl)cc2)nc2ccccn12)c1ccccc1` (stereo unspecified), 700 s.
In the case of `CC(C)C(=O)n1nc(-c2ccccc2)nc1N`, the RP-LC retention time is 888 s.
The figure for `CC1(C)CS(=O)(=O)N(c2cccc(C(=O)N3CCN(c4ccccn4)CC3)c2)C1=O` is 608 s.
As to `Cc1cc(C)c(S(=O)(=O)N2CCCCC2)c(C)c1N(C)S(=O)(=O)c1ccccc1`, the RP-LC retention time turned out to be 1060 s.
Turning to `O=C(Nc1nnc(SCCN2CCOCC2)s1)C1CCC1`, the RP-LC retention time was found to be 544 s.
The figure for `COc1ccccc1-c1noc(Cn2ncn3nc(-c4ccc(F)cc4)cc3c2=O)n1` is 996 s; for `CCOc1cc(-c2ccccc2)nc2ccc(NC(=O)c3cccs3)cc12` it is 754 s.
In the case of `Cc1ccc(C(=O)Nc2nccnc2C(=O)NC(C)c2ccc(F)cc2)cc1` (stereo unspecified) it was 1060 s; in that of `O=C(CNC(=O)c1ccccn1)Nc1nc2ccccc2[nH]1`, 601 s; in that of `CCNc1cc(N2CCC(CCC(=O)NCCc3cccs3)CC2)ncn1`, 570 s.
As for `CC(C)CNC(=O)c1cn(-c2ncccc2-c2nc(C(C)(C)C)no2)cn1`, the RP-LC retention time was determined as 872 s.
The figure for `CCn1ccc(NC(=O)c2ccccc2C)n1` is 720 s; for `COCCN1C(=O)[C@H]2CN(Cc3cccc(OC(F)(F)F)c3)C[C@H]2C1=O` it is 706 s.
In turn, `CCc1ccc(-c2csc(NC3OC(=O)c4ccccc43)n2)cc1` (stereo unspecified) gave an RP-LC retention time of 833 s.
In the case of `O=C1COc2cc(S(=O)(=O)N3CCC(C(=O)NCC4CCCO4)CC3)c(Cl)cc2N1` (stereo unspecified) it was 653 s; in that of `COCCCNC(=O)c1c(C)sc2ccn(Cc3ccc(F)cc3)c(=O)c12`, 746 s; in that of `Cc1oc(C2CCN(S(=O)(=O)c3cccs3)CC2)nc1C(=O)N1CCCC1`, 856 s.
`CCNC(=O)c1nc(-c2ccnc(N3CCOCC3)c2)no1` had an RP-LC retention time of 644 s.
In the case of `CC(C)c1csc(-c2csc(S(=O)(=O)NCc3ccc4c(c3)OCO4)c2)n1` it was 1050 s; in that of `CCNC(=O)c1nnc(-c2ccc(S(=O)(=O)N3CCCC3)cc2)o1`, 753 s.
`CCc1cc(C(=O)NCC2CCCO2)nc2cc(-c3ccccn3)nn12` (stereo unspecified) had an RP-LC retention time of 739 s.
The figure for `O=C(Cc1csc(SCc2ccncc2)n1)N1CCN(c2ccccc2)CC1` is 582 s.
`CCc1ccc(-c2csc(Nc3ccc(S(=O)(=O)Nc4nc(C)cc(C)n4)cc3)n2)cc1`: the RP-LC retention time came to 1040 s.
The figure for `Cc1noc(-c2ccc(=O)n(Cc3nc(-c4ccccc4)oc3C)c2)n1` is 804 s; for `O=C(c1ccccc1Br)N1CCN(c2cc(-c3cccs3)[nH]n2)CC1` it is 761 s.
